Literature values in patent US20050272755A1, “Method for treating abnormal cell growth” (priority 2004, published 2005).
Counter-ions that a name gives are not always drawn. Like-named read-outs stand apart in the source and are kept apart here.

Legend:
colorectal cancer = colorectal cancer patients resistant to 5-FU
[1] = test system: metastatic colorectal cancer

Row | Structure (SMILES) | survival compared with 5-FU/FA best infusional regimens (colorectal cancer) | survival compared with supportive care only (colorectal cancer) | median survival ([1]; European trial) [months] | median survival ([1]; US trial) [months] | grade 3-4 toxicity: diarrhea ([1]; capecitabine treatment arms) [%] | grade 3-4 toxicity: hand-foot syndrome ([1]; capecitabine treatment arms) [%] | Overall response rate ([1]; first of the two phase III studies ('respectively'; Europe N=602 named first), capecitabine 2500 mg/m^2/day for 14 days every 3 weeks) [%] | Overall response rate ([1]; second of the two phase III studies ('respectively'; US N=605 named second)) [%]
1 | CCc1c2c(nc3ccc(OC(=O)N4CCC(N5CCCCC5)CC4)cc13)-c1cc3c(c(=O)n1C2)COC(=O)[C@]3(O)CC [CPT-11, irinotecan hydrochloride trihydrate] | longer survival | longer survival |  |  |  |  |  | 
2 | CCCCCOC(=O)Nc1nc(=O)n([C@@H]2O[C@H](C)[C@@H](O)[C@H]2O)cc1F [capecitabine, 5′-deoxy-5-fluoro-N-[(pentyloxy)-carbonyl]-cytidine] |  |  | 13.3 | 12.5 | 14 | 17 | 21 | 21
